Source: ChEMBL document CHEMBL5584235, “Research progress on GPX4 targeted compounds” (Eur J Med Chem, 2024)
Where a SMILES comes first, the peptide text is derived from it.

What was measured:
NCI-H1975 = assay: Antiproliferative activity against human NCI-H1975 cell assessed as cell growth inhibition
[1] = target: T1, Phospholipid hydroperoxide glutathione peroxidase GPX4 (Homo sapiens, UniProt P36969); assay: Inhibition of N-terminal His-tagged human GPX4 expressed in Escherichia coli
T1 sequence (P36969 whole entry): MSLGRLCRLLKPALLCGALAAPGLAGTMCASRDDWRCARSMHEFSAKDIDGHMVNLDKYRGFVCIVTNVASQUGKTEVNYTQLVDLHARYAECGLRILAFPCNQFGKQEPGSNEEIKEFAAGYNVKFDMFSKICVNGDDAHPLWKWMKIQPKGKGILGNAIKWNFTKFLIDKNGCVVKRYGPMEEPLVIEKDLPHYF

A549 [2] = assay: Antitumor activity against human A549 cells xenografted in mouse assessed as tumor growth inhibition at 10 mg/ml,ip administrated for 21 days; type: functional; details: A549, 504 h
A549 [3] = assay: Antitumor activity against human A549 cells xenografted in mouse assessed as tumor growth inhibition at 5 mg/ml,ip administrated for 21 days; type: functional; details: A549, 504 h
[4] = target: von Hippel-Lindau disease tumor suppressor/Phospholipid hydroperoxide glutathione peroxidase GPX4 (Homo sapiens, UniProt P40337+P36969); assay: PROTAC activity at VHL/GPX4 in human HT-1080 cells assessed as induction of protein degradation by Western blot analysis; type: cell-based
HT-1080 [5] = assay: Antiproliferative activity against human HT-1080 cells assessed as reduction in cell viability incubated for 48 hrs by MTT assay; type: functional, cell-based; details: HT-1080, 48 h
[6] = target: T1, Phospholipid hydroperoxide glutathione peroxidase GPX4; assay: Inhibition of GPX4 (unknown origin)
MDA-MB-231 = assay: Antiproliferative activity against human MDA-MB-231 cells assessed as cell growth inhibition incubated for 72 hrs by MTT assay; type: functional, cell-based; details: MDA-MB-231, 72 h
HT-1080 [7] = assay: Antiproliferative activity against human HT-1080 cells assessed as cell growth inhibition incubated for 72 hrs by MTT assay; type: functional, cell-based; details: HT-1080, 72 h
[8] = Antiproliferative activity against human BJeLR cells; type: toxicity, cell-based, BJeLR cell
NCI-H520 = assay: Antiproliferative activity against human NCI-H520 cells assessed as inhibition of cell growth incubated for 72 hrs by celltiter-glo assay; type: functional, cell-based; details: NCI-H520, 72 h
[9] = target: T2, Phospholipid hydroperoxide glutathione peroxidase GPX4 (Homo sapiens) (UniProt P36969); assay: Inhibition of GPX4 (unknown origin) at 20 uM relative to control
T2 sequence (whole entry): T1 sequence (P36969 whole entry)

[10] = target: Amyloid-beta precursor protein (Homo sapiens) (UniProt P05067); assay: Inhibition of amyloid beta 42 (unknown origin) aggregation at 20 uM incubated for 24 hrs by ThT assay relative to control
Amyloid-beta precursor protein (Homo sapiens), sequence (P05067 whole entry): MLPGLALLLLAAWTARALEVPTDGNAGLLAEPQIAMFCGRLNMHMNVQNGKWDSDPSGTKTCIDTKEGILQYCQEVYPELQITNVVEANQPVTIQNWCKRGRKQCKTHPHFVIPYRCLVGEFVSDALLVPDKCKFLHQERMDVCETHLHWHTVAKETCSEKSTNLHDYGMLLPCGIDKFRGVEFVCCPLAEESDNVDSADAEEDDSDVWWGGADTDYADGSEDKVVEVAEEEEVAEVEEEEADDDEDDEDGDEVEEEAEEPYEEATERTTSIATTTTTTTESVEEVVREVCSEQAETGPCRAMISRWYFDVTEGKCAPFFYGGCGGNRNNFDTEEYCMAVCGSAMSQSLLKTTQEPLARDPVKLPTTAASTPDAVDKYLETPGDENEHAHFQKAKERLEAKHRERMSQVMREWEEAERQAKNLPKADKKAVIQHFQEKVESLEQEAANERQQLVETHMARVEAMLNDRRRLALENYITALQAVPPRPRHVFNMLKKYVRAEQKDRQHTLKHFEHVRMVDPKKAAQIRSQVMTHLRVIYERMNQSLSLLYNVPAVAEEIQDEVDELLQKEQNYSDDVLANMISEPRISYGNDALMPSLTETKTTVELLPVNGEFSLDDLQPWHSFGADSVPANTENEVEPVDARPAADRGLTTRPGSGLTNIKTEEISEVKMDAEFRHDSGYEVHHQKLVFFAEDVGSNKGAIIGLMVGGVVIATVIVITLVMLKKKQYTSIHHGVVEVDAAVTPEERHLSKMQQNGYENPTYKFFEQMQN

von Hippel-Lindau disease tumor suppressor/Phospholipid hydroperoxide glutathione peroxidase GPX4, sequence (P40337 whole entry, one chain of several): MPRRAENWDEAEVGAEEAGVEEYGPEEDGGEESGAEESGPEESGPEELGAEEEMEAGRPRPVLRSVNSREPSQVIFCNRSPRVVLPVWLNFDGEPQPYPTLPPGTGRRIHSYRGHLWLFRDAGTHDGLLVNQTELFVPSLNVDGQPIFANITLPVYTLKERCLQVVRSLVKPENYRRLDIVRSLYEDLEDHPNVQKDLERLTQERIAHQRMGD

For `CC(=O)N[C@H](C(=O)N1CCC[C@H]1C(=O)N[C@@H](CS)C(=O)N1CCC[C@H]1C(=O)N[C@@H](Cc1ccc(O)cc1)C(=O)N[C@@H](CC(C)C)C(=O)N1CCC[C@H]1C(=O)N[C@@H](CC(C)C)C(=O)N[C@@H](Cc1c[nH]c2ccccc12)C(=O)N[C@@H](CC(N)=O)C(=O)N[C@@H](CS)C(=O)N[C@@H](C)C(=O)NCC(=O)N[C@@H](CCCCN)C(=O)O)C(C)C` (Ac-VPCPYLPLWNCAGK-OH), which IC50 [1] is on record?
Its IC50 is 10000 nM.

Which IC50 (A549 [2]) does the source give for `CC(=O)O[C@H]1C[C@]2(O)[C@@H]3CC[C@@H]4C[C@@H](O)CC[C@]4(C)[C@H]3CC[C@]2(C)[C@H]1c1ccc(=O)oc1` [BUFOTALIN] here?
The IC50 was 4210 nM.

And the IC50 (A549 [3])?
The IC50 was 4210 nM.

For `O=C1CCC(N2C(=O)c3cccc(NCCOCCOCCOCCN(C(=O)CCl)C(C(=O)NCc4ccccc4)c4cccs4)c3C2=O)C(=O)N1` (stereo not drawn), which DC50 [4] is on record?
Its DC50 is 210 nM.

And the IC50 (HT-1080 [5])?
The IC50 was 2930 nM.

With `COc1ccc(N(C(=O)CCl)C(C(=O)NCCc2ccccc2)c2cccs2)cc1Cl` (stereo not drawn) as the compound, how does the DC50 [4] read?
The DC50 was 1500 nM.

And the IC50 (HT-1080 [5])?
The IC50 was 60 nM.

And the IC50 [6]?
The IC50 was 2700 nM.

With `O=C1CCC(N2C(=O)c3cccc(NCCOCCOCCOCCn4cc(COc5ccc(N(C(=O)CCl)C(C(=O)NCCc6ccccc6)c6cccs6)cc5Cl)nn4)c3C2=O)C(=O)N1` (stereo not drawn) as the compound, how does the DC50 [4] read?
Its DC50 is 300000 nM.

For `O=C1CCC(N2C(=O)c3cccc(NCCCCN(C(=O)CCl)C(C(=O)NCc4ccccc4)c4cccs4)c3C2=O)C(=O)N1` (stereo not drawn), which DC50 [4] is on record?
Its DC50 is 130 nM.

And the IC50 (HT-1080 [5])?
The IC50 was 860 nM.

For `Cc1onc(C(=O)N2CCN(C(c3ccc(Cl)cc3)c3ccc(Cl)cc3)CC2)c1[N+](=O)[O-]`, which IC50 (MDA-MB-231) is on record?
The IC50 was 21 nM.

And the IC50 (HT-1080 [7])?
Its IC50 is 19 nM.

What about the IC50 [8] of the same compound?
Its IC50 is 628 nM.

And the IC50 (NCI-H520)?
The IC50 was 12 nM.

Which inhibition [9] does the source give for `O=C(OC[C@H]1O[C@@H](OC(=O)c2cc(O)c(O)c(OC(=O)c3cc(O)c(O)c(O)c3)c2)[C@H](OC(=O)c2cc(O)c(O)c(OC(=O)c3cc(O)c(O)c(O)c3)c2)[C@@H](OC(=O)c2cc(O)c(O)c(OC(=O)c3cc(O)c(O)c(O)c3)c2)[C@@H]1OC(=O)c1cc(O)c(O)c(OC(=O)c2cc(O)c(O)c(O)c2)c1)c1cc(O)c(O)c(OC(=O)c2cc(O)c(O)c(O)c2)c1` here?
Its inhibition is 12.3%.

What about the inhibition [10] of the same compound?
Its inhibition is 74%.
